Results: patent US20220370385A1, “COMPOSITIONS FOR USE IN INHIBITING SRC KINASE AND TREATING AND PREVENTING ASSOCIATED DISORDERS” (Enzene Biosciences Ltd., priority 2019, published 2022)
Entries after “also recorded” stand apart in the source; their conditions may differ.

Assays:
[1] = test system: colon cancer cell line HCT116; test: Anti-proliferative activity in HCT116; type: cell-based
[2] = test system: breast cancer cell line BT-474; test: Anti-proliferative activity in BT-474; type: cell-based
SRC kinase = biological target: T1, SRC kinase (Homo sapiens, UniProt P12931); test: Kinase inhibitor screening assay (Promega kinase selectivity profiling, ADP-Glo); type: biochemical; parameters: dose or concentration left out as unconfirmed; settings: panel of 16 tyrosine kinases
T1 construct: purchased Promega
Protocol: The kinase selectivity profiling systems from Promega was used to check the inhibitory activity of the purified compound against the broad panel of Tyrosine kinases. The kinase selectivity assays were assembled in a 384-well plate using 1 μl of the purified compound ([…]), 2 μl of each kinase working stock and 2 μl of the corresponding ATP/Substrate working stock as per the manufacturer protocol and kinase activity was quantified using the ADP-Glo™ kinase assay from Promega. The reaction assembled with kinase and corresponding ATP/Substrate without the purified compound was used as a positive control.

MDA-MB-468 cells [3] = test: MDA-MB-468 cell viability, CellTiter-Glo, 24 hrs; type: cell-based, human; settings: Homo sapiens, 24 hrs incubation
Protocol: MDA-MB-468 cells, isolated from a pleural effusion of a patient with metastatic adenocarcinoma of the breast, is a triple negative breast cancer (TNBC) cell line. The IC 50 value of E05 or lapatinib (Sigma) or the structural analogues of E05 were tested in this cell line.
(§1) Briefly, MDA-MB-468 cells (ATCC #HTB-32) were seeded with a density of 5,000 cells per well in a 96 well white plate (Costar Cat #3917) in DMEM media supplemented with 10% FBS (assay medium). The plates were incubated at 37° C., 5% CO2 for 24 hr. E05 and analogues were diluted in the assay medium and added to the respective wells of the assay plate. The plates were further incubated at 37° C., 5% CO2 for 24 hrs. After the incubation, the cell viability was assessed using CellTiter-Glo® and the plates were read for luminescence using Cytation 5 (Biotek). The relative luminescence unit (RLU) obtained was plotted against the concentration and EC50 values were estimated using Graphpad Prism 5 software (FIG. 15 and Table 2).

MDA-MB-468 cells [4] = test: MDA-MB-468 cell viability, CellTiter-Glo, 8 hrs, comparison with lapatinib; type: cell-based, human; settings: MDA-MB-468, within 8 hrs of incubation
Protocol: as §1, with “MDA-MB-468 cells” for “Briefly, MDA-MB-468 cells”, “E05 and Lapatinib was diluted in” for “E05 and analogues were diluted in”, “the assay plates. The plates” for “the assay plate. The plates”, “CO2 for 8 hrs. After” for “CO2 for 24 hrs. After”, “Prism 5 software.” for “Prism 5 software (FIG. 15 and Table 2).”

MDA-MB-468 = test: Murine xenograft model of Triple-Negative Breast Cancer; type: in vivo, SCID mice; settings: oral, twice daily
Protocol: Efficacy study of E05 and positive control (5-Fluorouracil) were carried out in a murine xenograft model of Triple-Negative Breast Cancer (MDA-MB-468). Dosing was done as per the Table. 3.
Female SCID (Severe Combined Immunodeficient) mice were used for this study.
Approximately 5×10^6 cells in 0.2 mL FBS free medium containing 50% of Matrigel was injected into sub-cutaneous tissue on right flank of each mouse. Treatment with E05 or with positive control was initiated when average tumor volume reaches ˜100 mm3. Tumor volume was measured periodically.

[5] = Repeated dose 7-day dose range finding study, intravenous bolus injection; type: in vivo; settings: for Morbidity % / Morbidity No / Mortality % / Mortality No: i.v. bolus 7 days
Protocol: Repeated dose 7-day dose range finding study (DRF) of E05 through intravenous bolus injection was carried out in Wistar rats.

[6] = Repeated dose 7-day dose range finding study, oral gavage; type: in vivo
Protocol: Repeated dose 7-day dose range finding study (DRF) of E05 through oral gavage was carried out in Wistar rats.

[7] = Maximum tolerated dose study, oral gavage; type: in vivo; settings: Female G1 175 mg/kg b. wt., single oral gavage
Protocol: A maximum tolerated dose (MTD) study was carried out with E05. In MTD study, group of 3 male and 3 female rats were dosed at 175 (group 1), 550 (group 2), 1750 (group 3) and 2000 (group 4) mg/kg b. wt.

[8] = Female G2 250 mg/kg b. wt., oral gavage 7 days
[9] = Female G3 500 mg/kg b. wt., oral gavage 7 days
[10] = Female G4 1000 mg/kg b. wt., oral gavage 7 days
[11] = Male G2 250 mg/kg b. wt., oral gavage 7 days
[12] = Male G3 500 mg/kg b. wt., oral gavage 7 days
[13] = Male G4 1000 mg/kg b. wt., oral gavage 7 days

T1 sequence (P12931 whole entry): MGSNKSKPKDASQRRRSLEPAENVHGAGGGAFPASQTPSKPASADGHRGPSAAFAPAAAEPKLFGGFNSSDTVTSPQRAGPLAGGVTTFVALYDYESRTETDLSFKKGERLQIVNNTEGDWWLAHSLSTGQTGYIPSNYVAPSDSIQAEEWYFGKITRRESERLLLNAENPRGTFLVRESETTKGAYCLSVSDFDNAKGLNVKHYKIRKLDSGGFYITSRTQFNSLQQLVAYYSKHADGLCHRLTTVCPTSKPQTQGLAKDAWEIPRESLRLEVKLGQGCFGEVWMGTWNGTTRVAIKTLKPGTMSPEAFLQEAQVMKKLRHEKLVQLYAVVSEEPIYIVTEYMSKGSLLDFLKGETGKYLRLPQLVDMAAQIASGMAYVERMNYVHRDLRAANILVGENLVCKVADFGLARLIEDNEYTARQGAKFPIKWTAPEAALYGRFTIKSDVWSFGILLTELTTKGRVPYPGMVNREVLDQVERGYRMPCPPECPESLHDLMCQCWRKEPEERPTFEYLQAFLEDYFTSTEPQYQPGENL

In the case of `O=C(O)CCc1ccc(O)c(O)c1` [E05, 3-(3,4-Dihydroxyphenyl) propanoic acid], the inhibition of growth [1] is reported as “dose dependent response; also recorded: dose dependent inhibition of growth”, the inhibition of growth [2] is reported as “dose dependent response; also recorded: dose dependent inhibition of growth” and the SRC kinase activity (SRC kinase) is reported as “inhibited”. For the same compound, the EC50 (MDA-MB-468 cells [3]) was 86.1 µM, the “inhibition compared with lapatinib” value (MDA-MB-468 cells [4]) was “stronger inhibition in compare to lapatinib” and the “efficacy in the murine xenograft model of TNBC” value (MDA-MB-468; 6 weeks) was “statistically significant efficacy”. The tumor volumes (MDA-MB-468; 6 weeks, 75, 200, 500 mg/kg) was “Dose dependent decrease in tumor volumes”, the Morbidity % ([5]; Female G2 125 mg/kg b. wt) was 0% and the “Morbidity No” value ([5]; Female G2 125 mg/kg b. wt) was 0. For the same compound, the Mortality % ([5]; Female G2 125 mg/kg b. wt) was 0%, the “Mortality No” value ([5]; Female G2 125 mg/kg b. wt) was 0 and the Morbidity % ([5]; Female G3 250 mg/kg b. wt) was 0%. The “Morbidity No” value ([5]; Female G3 250 mg/kg b. wt) was 0, the Mortality % ([5]; Female G3 250 mg/kg b. wt) was 0% and the “Mortality No” value ([5]; Female G3 250 mg/kg b. wt) was 0. For the same compound, the Morbidity % ([5]; Female G4 500 mg/kg b. wt) was 0%, the “Morbidity No” value ([5]; Female G4 500 mg/kg b. wt) was 0 and the Mortality % ([5]; Female G4 500 mg/kg b. wt) was 0%. For the same compound, the “Mortality No” value ([5]; Female G4 500 mg/kg b. wt) was 0, the Morbidity % ([5]; Male G2 125 mg/kg b. wt) was 0% and the “Morbidity No” value ([5]; Male G2 125 mg/kg b. wt) was 0. For the same compound, the Mortality % ([5]; Male G2 125 mg/kg b. wt) was 0%, the “Mortality No” value ([5]; Male G2 125 mg/kg b. wt) was 0 and the Morbidity % ([5]; Male G3 250 mg/kg b. wt) was 0%. For the same compound, the “Morbidity No” value ([5]; Male G3 250 mg/kg b. wt) was 0, the Mortality % ([5]; Male G3 250 mg/kg b. wt) was 0% and the “Mortality No” value ([5]; Male G3 250 mg/kg b. wt) was 0. For the same compound, the Morbidity % ([5]; Male G4 500 mg/kg b. wt) was 0%, the “Morbidity No” value ([5]; Male G4 500 mg/kg b. wt) was 0 and the Mortality % ([5]; Male G4 500 mg/kg b. wt) was 0%. For the same compound, the “Mortality No” value ([5]; Male G4 500 mg/kg b. wt) was 0, the systemic toxicity ([5]; up to 500 mg/kg b. wt., daily intravenous bolus, 7 consecutive days) was “did not produce any systemic toxicity” and the Morbidity % [6, 8] was 0%. For the same compound, the “Morbidity No” value [6, 8] was 0, the Mortality % [6, 8] was 0% and the “Mortality No” value [6, 8] was 0. The Morbidity % [6, 9] was 0%, the “Morbidity No” value [6, 9] was 0 and the Mortality % [6, 9] was 0%. The “Mortality No” value [6, 9] was 0, the Morbidity % [6, 10] was 0% and the “Morbidity No” value [6, 10] was 0. For the same compound, the Mortality % [6, 10] was 0%, the “Mortality No” value [6, 10] was 0 and the Morbidity % [6, 11] was 0%. For the same compound, the “Morbidity No” value [6, 11] was 0, the Mortality % [6, 11] was 0% and the “Mortality No” value [6, 11] was 0. The Morbidity % [6, 12] was 0%, the “Morbidity No” value [6, 12] was 0 and the Mortality % [6, 12] was 0%. The “Mortality No” value [6, 12] was 0, the Morbidity % [6, 13] was 0% and the “Morbidity No” value [6, 13] was 0. The Mortality % [6, 13] was 0%, the “Mortality No” value [6, 13] was 0 and the “food consumption, organ weight and relative organ weight” value ([6]; male and female rats, oral gavage 7 days) was “No treatment-related changes”. For the same compound, the “mortality, morbidity or clinical sign” value ([6]; rat, in vivo, po) was “no mortality, morbidity or clinical sign”, the toxicity ([6]; up to 1000 mg/kg b. wt., orally through gavage, 7 consecutive days) was “did not produce any toxicity” and the “Morbidity on Experimental Day 1” value [7] was 0. The “Morbidity on Experimental Day 2” value [7] was 0, the “Morbidity on Experimental Day 3” value [7] was 0 and the “Morbidity on Experimental Day 4” value [7] was 0.
